Like-named read-outs stand apart in the source and are kept apart here.
Experiments:
α6β3β4α5 = biological target: T1, α6β3β4α5 (Homo sapiens, UniProt P30926+Q15825); assay: Competition binding to α6β3β4α5 receptors in membranes of SH-EP1/α6β3β4α5 cells ([3H]-epibatidine); conditions: membrane competition binding, read-out: α6β3β4α5 Ki
T1 construct: host or cells: SH-EP1

Human α4β2 = biological target: T2, Human α4β2 (Homo sapiens, UniProt P17787+P43681); assay: Competition binding to human α4β2 receptors in membranes of SH-EP1/human α4β2 cells ([3H]-nicotine); conditions: membrane competition binding
T2 construct: host or cells: SH-EP1

Rat α4β2 = biological target: T3, Rat α4β2 (Rattus norvegicus, UniProt P09483+P12390); assay: Competition binding to rat α4β2 receptors in rat cortical membranes; conditions: rat cortex membranes
T3 construct: Rat cortices were obtained from Analytical Biological Services; tissue Analytical Biological Services, Incorporated (ABS, Wilmington, Del.); host or cells: rat cortex (female Sprague-Dawley)
Method: Preparation of membranes from rat tissues. Rat cortices were obtained from Analytical Biological Services, Incorporated (ABS, Wilmington, Del.). Tissues were dissected from female Sprague-Dawley rats, frozen and shipped on dry ice. Tissues were stored at −20° C. until needed for membrane preparation. […] The resulting homogenate was centrifuged at 40,000 g for 20 minutes at 4° C. and the resulting pellet was resuspended in 20 volumes of ice-cold water. After 60-minute incubation at 4° C., a new pellet was collected by centrifugation at 40,000 g for 20 minutes at 4° C. The final pellet was resuspended in preparative buffer and stored at −20° C. On the day of the assay, tissue was thawed, centrifuged at 40,000 g for 20 minutes and then resuspended in PBS (Dulbecco's Phosphate Buffered Saline, Life Technologies, pH 7.4) to a final concentration of 2-3 mg protein/mL. Protein concentrations were determined using the Pierce BCA Protein Assay kit (Pierce Biotechnology, Rockford, Ill.), with bovine serum albumin as the standard.
Competition binding to receptors in membrane preparations. […] In brief, membranes were reconstituted from frozen stocks (approximately 0.2 mg protein) and incubated for 2 h on ice in […] assay buffer (PBS) in the presence of competitor compound (0.001 nM to […]) and radioligand. [^3H]-nicotine (L-(−)-[N-methyl-3H]-nicotine, 69.5 Ci/mmol, Perkin-Elmer Life Sciences) was used for human α4β2 binding studies. [^3H]-epibatidine (52 Ci/mmol, Perkin-Elmer Life Sciences) was used for binding studies at the other receptor subtypes. […] Filters were washed 3 times and the radioactivity retained was determined by liquid scintillation counting.
Binding data analysis. Binding data were expressed as percent total control binding. Replicates for each point were averaged and plotted against the log of drug concentration.

| Structure (SMILES) | Ki (Human α4β2; read-out: Human α4β2 Ki) [µM] | also measured |
| --- | --- | --- |
| CCC[C@H]1C[C@H]1C(=O)N1C2CNCC1C2 | 0.57 | Ki (α6β3β4α5): 1.1 µM |
| Cc1cc(C(=O)N2CC3CC(C2)N3)no1 | 1.1 | – |
| O=C(C1Cc2ccccc21)N1C2CNCC1C2 (centres unmarked) | 9.4 | – |
| CC(=O)NCCCC(=O)N1CC2CC(C1)N2 | 1.9 | – |
| CC(C)C(=O)N1C2CNCC1C2 | 0.26 | – |
| O=C(COCc1ccccc1)N1C2CNCC1C2 | 1.4 | – |
| O=C([C@@H]1CCCO1)N1CC2CC(C1)N2 | 0.37 | – |
| O=C(CCOc1ccc(F)cc1)N1C2CNCC1C2 | 1.2 | – |
| Cc1cc(C(=O)N2C3CNCC2C3)no1 | – | Ki (Rat α4β2; Rat α4β2 Ki): 0.05 µM; Ki (Human α4β2; Human α4β2 Ki): 0.1 µM |
| COCC(=O)N1CC2CC(C1)N2 | – | Ki (Rat α4β2; Rat α4β2 Ki): 0.05 µM; Ki (Human α4β2; Human α4β2 Ki): 0.079 µM |
| O=C(c1cnco1)N1C2CNCC1C2 | – | Ki (Rat α4β2; Rat α4β2 Ki): 0.017 µM; Ki (Human α4β2; Human α4β2 Ki): 0.072 µM |
| O=C(CC1CCCC1)N1CC2CC(C1)N2 | 0.44 | – |
| CCC(C)C(=O)N1CC2CC(C1)N2 (centres unmarked) | 0.15 | Ki (Rat α4β2; read-out: Rat α4β2 Ki): 0.24 µM |
| O=C(C1CC2CCC1C2)N1C2CNCC1C2 (centres unmarked) | 1.7 | – |
| O=C(CC1CCOC1)N1CC2CC(C1)N2 (centres unmarked) | 0.24 | – |
| O=C(OCCF)N1CC2CC(C1)N2 [3-(2-fluoroethoxy)carbonyl-3,6-diazabicyclo[3.1.1]heptane] | – | Ki (Rat α4β2; Rat α4β2 Ki): 0.052 µM; Ki (Human α4β2; Human α4β2 Ki): 0.0059 µM |
| O=C(C1CCOCC1)N1CC2CC(C1)N2 | 0.32 | – |
| O=C(c1ccno1)N1CC2CC(C1)N2 [3-(isoxazol-5-yl)carbonyl-3,6-diazabicyclo[3.1.1]heptane] | 0.15 | – |
| O=C(COc1ccc(Cl)c(Cl)c1)N1CC2CC(C1)N2 | 0.33 | Ki (α6β3β4α5): 0.7 µM |
| Cc1ncoc1C(=O)N1C2CNCC1C2 | 0.14 | Ki (Rat α4β2; read-out: Rat α4β2 Ki): 0.25 µM |
| O=C(C1CCCC1)N1CC2CC(C1)N2 | – | Ki (Rat α4β2; Rat α4β2 Ki): 0.077 µM; Ki (Human α4β2; Human α4β2 Ki): 0.17 µM |
| Cc1ncoc1C(=O)N1CC2CC(C1)N2 | – | Ki (α6β3β4α5): 11 µM; Ki (Rat α4β2; Rat α4β2 Ki): 0.038 µM |
| O=C(c1cc(Cl)cc(Cl)c1)N1CC2CC(C1)N2 | 3.3 | – |
| O=C(N1CC2CC(C1)N2)C1(C(F)(F)F)CCC1 | 6.3 | – |
| O=C(C1CC=CCC1)N1C2CNCC1C2 (centres unmarked) | 1.2 | – |

| Structure (SMILES) | Ki (Human α4β2; read-out: Human α4β2 Ki) [µM] | also measured |
| --- | --- | --- |
| COCCOC(=O)N1CC2CC(C1)N2 [3-methoxyethoxycarbonyl-3,6-diazabicyclo[3.1.1]heptane] | 0.12 | – |
| CC(=O)N1CC2CC(C1)N2 [3-methylcarbonyl-3,6-diazabicyclo[3.1.1]heptane] | – | Ki (Human α4β2; Human α4β2 Ki): 0.17 µM |
| O=C(CC1CCCO1)N1C2CNCC1C2 (centres unmarked) | 2 | – |
| COCCC(=O)N1C2CNCC1C2 [6-(2-methoxyethyl)carbonyl-3,6-diazabicyclo[3.1.1]heptane] | 0.37 | – |
| Cc1nocc1C(=O)N1C2CNCC1C2 | 1.1 | – |
| O=C(COCc1ccccc1)N1CC2CC(C1)N2 | 1 | – |
| O=C(C1CCC1)N1C2CNCC1C2 [6-cyclobutylcarbonyl-3,6-diazabicyclo[3.1.1]heptane] | – | Ki (Rat α4β2; Rat α4β2 Ki): 0.026 µM; Ki (Human α4β2; Human α4β2 Ki): 0.014 µM |
| O=C([C@H]1C[C@H]1F)N1C2CNCC1C2 | – | Ki (Rat α4β2; Rat α4β2 Ki): 0.00089 µM; Ki (Human α4β2; Human α4β2 Ki): 0.0037 µM |
| O=C(C1Cc2ccccc21)N1CC2CC(C1)N2 (centres unmarked) | 2 | – |
| O=C(C1C2C3CCC(C3)C12)N1CC2CC(C1)N2 (centres unmarked) | 1.3 | Ki (α6β3β4α5): 22 µM |
| CC(=O)NCCC(=O)N1CC2CC(C1)N2 | 3.4 | – |
| COCC(=O)N1C2CNCC1C2 | 0.41 | – |
| O=C(C1Cc2ccccc2C1)N1C2CNCC1C2 | 3 | – |
| O=C(c1ccnc(Cl)c1)N1CC2CC(C1)N2 | 0.45 | – |
| O=C(c1cnc(Cl)c(Cl)c1)N1CC2CC(C1)N2 | 1.5 | – |
| O=C(C1Cc2ccccc2C1)N1CC2CC(C1)N2 | 0.8 | – |
| O=C(Cc1c[nH]c2ccccc12)N1C2CNCC1C2 | 2.2 | – |
| C[C@@H]1C(C(=O)N2C3CNCC2C3)[C@@H]1C (some centres unmarked) | 0.61 | Ki (α6β3β4α5): 2.4 µM |
| O=C(CC1CCOCC1)N1C2CNCC1C2 | 3.3 | – |
| C[C@@H]1C[C@@H]1C(=O)N1C2CNCC1C2 | 0.82 | Ki (α6β3β4α5): 30 µM |
| CC1(C)CC(C(=O)N2C3CNCC2C3)C1 | 0.76 | – |
| O=C(CC1CCCO1)N1CC2CC(C1)N2 (centres unmarked) | 2.9 | – |
| O=C(CC1C=CCC1)N1CC2CC(C1)N2 (centres unmarked) | – | Ki (Rat α4β2; Rat α4β2 Ki): 0.034 µM; Ki (Human α4β2; Human α4β2 Ki): 0.011 µM |
| O=C(Cc1c[nH]c2ccccc12)N1CC2CC(C1)N2 | 0.75 | – |

Source: patent publication US8802694B2, “3,6-diazabicyclo[3.1.1]heptanes as neuronal nicotinic acetycholine receptor ligands” (Targacept, Inc., priority 2009, dated 2014)
